According to PubChem BioAssay AID1918994 (Molecular Pharmacology Branch, DTP, NCI, 2023):

Tested on: 292921-168-R-J2-PDC complex spheroid growth
Experiment: Anticancer human tumor 292921-168-R-J2-PDC patient-derived pancreatic carcinoma cell line growth inhibition [AhR]
Conditions: for IC50: curve of first compound; for viability, T/C: stronger effect = lower value
From the text: Multicellular complex tumor spheroid response to aryl hydrocarbon receptor antagonists in combination with a variety of drugs and investigational agents in selected tumor cell lines
The current study was undertaken to assess response to aryl hydrocarbon receptor antagonists in combination with standard-of-care drugs and investigational agents in solid tumor complex spheroid models. Complex spheroids include a stromal component modeled by human endothelial cells (HUVEC) and fibroblasts modeled by human mesenchymal stem cells (MSCs). The concentration ranges selected for each drug and investigational agent were based upon clinically achievable concentrations if the clinical Cmax of the agent was known.
Compounds. The drugs and investigational agents: BAY 2416964 (NSC825713), GNF351 (NSC835774), CH-223191 (NSC835775), CPI-455 (NSC825282), aza-TdCyd (NSC777586), decitabine (NSC127716), belinostat (NSC758774), entinostat (NSC756642), pevonedistat (NSC761192), tazemetostat (NSC777109), talazoparib (NSC765396), olaparib (NSC753686), selinexor (NSC780203), nedisertib (M3814, NSC802822), bortezomib (NSC756655), venetoclax (NSC766270), doxorubicin (NSC123127), elimusertib (BAY189344, NSC800525), ceralasertib (AZD6738, NSC777638), TAK-243 (NSC785004), alisertib (NSC759677), etoposide (NSC141540), topotecan (NSC609699), eribulin (NSC707389), gemcitabine (NSC613327), carboplatin (NSC241240), cisplatin (NSC119875), and SN-38 (NSC673596) were obtained from the National Cancer Institute (NCI) Developmental Therapeutics Program Chemical Repository (32). The FDA-approved anticancer drug set is available from the Developmental Therapeutics Program at https://dtp.cancer.gov/organization/dscb/obtaining/available plates.htm. […] The stock solutions were prepared in dimethyl sulfoxide (DMSO, Sigma-Aldrich, St. Louis, MO, cat. D2650), except for the platinum compounds which were prepared in saline (Quality Biological, Gaithersburg, MD, cat. 114-055-101), at 800-fold the tested concentration and stored at -70 degrees C prior to their use. All drugs and investigational agents were tested over a range starting from a high concentration at or near the clinical Cmax and decreasing in half-log increments. If the clinical Cmax for an agent had not been determined, the highest concentration tested was 10 microM (Table 1).
Cell Culture. All cells were maintained in an incubator at 37 degrees C and 5% CO2 with 95% humidity. The PDC lines were cultured according to standard operating procedures established by the NCI PDMR (https://pdmr.cancer.gov). Briefly, all PDCs were thawed and cultured in Matrigel-coated flasks prepared with a working solution of 1X Ham's F-12 nutrient mix, without supplementation (Invitrogen, Waltham, MA, cat. 11765054), 100 U/mL penicillin-streptomycin (Invitrogen, cat. 15140122), and 2.5% Matrigel (Corning Inc., Corning, NY, cat. 354248) for the first three passages. All PDCs were cultured in complete DMEM/F-12 media containing advanced DMEM/F-12 (Invitrogen, cat. 12634028), 4.9% defined fetal bovine serum, heat inactivated (HyClone Laboratories Inc., Logan, UT, cat. SH30070.03HI), 389 ng/mL hydrocortisone (Sigma-Aldrich, cat. H4001), 9.7 ng/mL human EGF recombinant protein (Invitrogen, cat. PHG0313), 23.4 microg/mL adenine (Sigma-Aldrich, cat. A2786), 97.3 U/mL penicillin-streptomycin (Invitrogen, cat. 15140122), 1.9 mM L-glutamine (Invitrogen, cat. 25030081), and 9.7 microM Y-27632 dihydrochloride (Tocris Bioscience, Bristol, United Kingdom, cat. 1254). The PDCs were cultured in complete DMEM/F12 media without 10 microM Y-27632 dihydrochloride for at least two passages prior to the screen. The established cell lines NCI-H1341 and […] were cultured in DMEM/F-12, HEPES (Invitrogen, cat. 11330032), 5% defined fetal bovine serum (HyClone Laboratories Inc., cat. SH30070.03), ITS premix universal culture supplement [insulin (5 microg/mL), transferrin (5 microg/mL), and selenious acid (5 ng/mL)] […]

[1] = second compound 0.1 µM, first compound 0.0316 µM
[2] = second compound 0.1 µM, first compound 0.1 µM
[3] = second compound 0.1 µM, first compound 0.316 µM
[4] = second compound 0.1 µM, first compound 1 µM
[5] = second compound 0.1 µM, first compound 3.16 µM
[6] = second compound 0.1 µM, first compound 10 µM
[7] = second compound 0.316 µM, first compound 0.0316 µM
[8] = second compound 0.316 µM, first compound 0.1 µM
[9] = second compound 0.316 µM, first compound 0.316 µM
[10] = second compound 0.316 µM, first compound 1 µM
[11] = second compound 0.316 µM, first compound 3.16 µM
[12] = second compound 0.316 µM, first compound 10 µM
[13] = second compound 1 µM, first compound 0.0316 µM
[14] = second compound 1 µM, first compound 0.1 µM
[15] = second compound 1 µM, first compound 0.316 µM
[16] = second compound 1 µM, first compound 1 µM
[17] = second compound 1 µM, first compound 3.16 µM
[18] = second compound 1 µM, first compound 10 µM
[19] = second compound 3.16 µM, first compound 0.0316 µM
[20] = second compound 3.16 µM, first compound 0.1 µM
[21] = second compound 3.16 µM, first compound 0.316 µM
[22] = second compound 3.16 µM, first compound 1 µM
[23] = second compound 3.16 µM, first compound 3.16 µM
[24] = second compound 3.16 µM, first compound 10 µM
[25] = second compound 10 µM, first compound 0.0316 µM
[26] = second compound 10 µM, first compound 0.1 µM
[27] = second compound 10 µM, first compound 0.316 µM
[28] = second compound 10 µM, first compound 1 µM
[29] = second compound 10 µM, first compound 3.16 µM
[30] = second compound 10 µM, first compound 10 µM
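Also: spheroids exposed to compounds for seven days after three days of growth.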

Row | Structure (SMILES) | IC50 (second compound 0.1 µM) [nM] | IC50 (second compound 0.316 µM) [nM] | IC50 (second compound 1 µM) [nM] | IC50 (second compound 3.16 µM) [nM] | IC50 (second compound 10 µM) [nM] | viability, T/C [1] [%] | viability, T/C [2] [%] | viability, T/C [3] [%] | viability, T/C [4] [%] | viability, T/C [5] [%] | viability, T/C [6] [%] | viability, T/C [7] [%] | viability, T/C [8] [%] | viability, T/C [9] [%] | viability, T/C [10] [%] | viability, T/C [11] [%] | viability, T/C [12] [%] | viability, T/C [13] [%] | viability, T/C [14] [%] | viability, T/C [15] [%] | also measured
1 | Nc1ccccc1NC(=O)c1ccc(CNC(=O)OCc2cccnc2)cc1 + CC(CO)NC(=O)c1cc(-c2ccc(Cl)cc2)nn(-c2cnn(C)c2)c1=O | 190 | 148 | 195 | 116 | < 31.6 | 67.5 | 58.8 | 43 | 31 | 25.5 | 9.72 | 69 | 51.2 | 44.3 | 28.1 | 23.7 | 10.4 | 66.6 | 60.7 | 43.4 | viability, T/C [16]: 25.4%; viability, T/C [17]: 23.7%; viability, T/C [18]: 9.21%; viability, T/C [19]: 60.8%; viability, T/C [20]: 51.1%; viability, T/C [21]: 43.3%; viability, T/C [22]: 23.1%; viability, T/C [23]: 22.7%; viability, T/C [24]: 8.28%; viability, T/C [25]: 45.9%; viability, T/C [26]: 40.5%; viability, T/C [27]: 32.9%; viability, T/C [28]: 19.4%; viability, T/C [29]: 18.1%; viability, T/C [30]: 5.12%
2 | O=C(c1cc(Cc2n[nH]c(=O)c3ccccc23)ccc1F)N1CCN(C(=O)C2CC2)CC1 + CC(CO)NC(=O)c1cc(-c2ccc(Cl)cc2)nn(-c2cnn(C)c2)c1=O | > 10000 | > 10000 | > 10000 | > 10000 | > 10000 | 100 | 96.1 | 92.4 | 98.8 | 78.4 | 64 | 97.4 | 98.4 | 99.4 | 90.1 | 74.3 | 66.7 | 90.3 | 103 | 94.7 | viability, T/C [16]: 90.2%; viability, T/C [17]: 78.2%; viability, T/C [18]: 66.2%; viability, T/C [19]: 85.9%; viability, T/C [20]: 86%; viability, T/C [21]: 81.8%; viability, T/C [22]: 83.7%; viability, T/C [23]: 70.8%; viability, T/C [24]: 55.9%; viability, T/C [25]: 67.5%; viability, T/C [26]: 62.8%; viability, T/C [27]: 67.1%; viability, T/C [28]: 63.4%; viability, T/C [29]: 56.6%; viability, T/C [30]: 49%
